From US9309285B2, “Macrocyclic broad spectrum antibiotics” (priority 2012, dated 2016) come the findings set out here.

Each structure is given as a SMILES string. Read-outs that look alike come from different tables or passages of the source.

Assay [1] concerns Methicillin Resistant Staphylococcus aureus strain USA 300 (NRS384). Nature of the assay: MIC by broth micro-dilution (CLSI), S. aureus. The format is cell-based. The conditions noted are these: MRSA USA 300 (NRS384), cation adjusted Mueller Hinton Broth + 0.002% Tween-80, 35° C., 22 hours; for MIC: Staphylococcus aureus, MRSA / NRS 384 / USA300, read-out: MIC (μg/mL) S. aureus. On the procedure: (§1) In vitro antimicrobial activity of each compound was determined by measuring minimal inhibitor concentrations (MICs) using the broth micro-dilution technique as approved by the Clinical and Laboratory Standards Institute (CLSI) (Methods for Dilution Antimicrobial Susceptibility Tests for Bacteria that Grow Aerobically; Approved Standard—Eighth Edition. CLSI document M07-A8. Wayne, Pa.: Clinical and Laboratroy Standards; 2009). Antibacterial activity was measure against two strains of bacteria: a Methicillin Resistant Staphylococcus aureus strain USA 300 (NRS384) and a strain of Escherichia coli MC4100 harboring the IMP4213, which results in increased outer-membrane permeability (B Martin and Silhavy T. Imp/OstA is required for cell envelope biogenesis in Escherichia coli. (2002) Molecular Microbiology, 45(5), 1289-1302). Cells were inoculated onto plates of Trypyticase Soy Agar or Luria Agar respectively and grown at 35° C. for 20 hours. Inocula suspensions were prepared by scraping cells into 1 ml of testing media (cation adjusted Mueller Hinton Broth supplemented with 0.002% v/v Tween-80) and diluting to a final OD600 nm of 0.01.
Test compounds were prepared in DMSO at a concentration of 10 mg/ml. These compound stocks were diluted into testing media at a concentration of 64 μg/ml and serial 2-fold dilutions were made in the same media, in 96-well U bottom microtiter dishes, for a total of 10 compound concentrations. Inocula suspensions were added to the 2-fold serial dilutions of test compounds to a final density of OD OD600 nm of 0.0005 and incubated at 35° C. for 22 hours.
In general terms: Broth dilution looks for growth in wells or tubes with falling amounts of substance.

For a further assay, the target named is T1, S. aureus SPase (Staphylococcus aureus, UniProt P0A070).
T1 construct: Full length His-tagged E. coli and S. aureus SPase proteins were expressed in E. coli BL21; His tag; made in house; host or cells: E. coli BL21 (DE3)
T1 sequence (P0A070 1-191): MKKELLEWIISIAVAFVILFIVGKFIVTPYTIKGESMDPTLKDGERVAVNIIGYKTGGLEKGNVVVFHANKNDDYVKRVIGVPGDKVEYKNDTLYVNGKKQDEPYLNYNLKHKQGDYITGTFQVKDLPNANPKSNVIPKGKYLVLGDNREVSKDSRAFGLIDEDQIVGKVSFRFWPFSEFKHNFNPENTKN
Nature of the assay: SPase enzyme inhibition assay, fluorogenic peptide substrate, S. aureus. The format is biochemical. The method, then: (§2) Briefly, for expression of E. coli SPase, saturated overnight cultures grown in 20 ml of Luria-Bertani medium supplemented with ampicillin were subcultures into 1.5 L of Luria-Bertani, and shaken at 37° C. until an optical density at 600 nm of 0.4-0.5 was achieved. […] S. aureus SPase was expressed and purified similarly, with the following exceptions. […] Resin bound protein was washed in a similar buffer containing 1% Elugent in place of Triton X-100 prior to protein elution in wash buffer supplemented with 300 mM imidazole. […] All protein concentrations were determined by BCA assay.
(§3) Enzyme master solution was prepared by diluting Escherichia coli or Staphylococcus aureus SPase protein into reaction buffer to a final concentration of 3 nM or 10 nM respectively. Reaction buffer consisted of 20 mM NaKHPO4 pH 7.4, 100 mM NaCl, and 1% v/v Elugent™ detergent. Reactions were initiated by the addition of substrate to a final concentration of 20 μM. Reaction progress was monitored by measuring the increase in fluorescence signal (excitation at 314 nm, emission at 416 nm) using a SpectraMax M2 fluorescence microplate reader. […] Three-folder serial dilutions of test compounds, starting at 10 μM, were prepared in enzyme mix solution and incubated at room temperature for 10 minutes. Following this incubation, fluorogenic substrate was added to a final concentration of 20 μM and the increase in fluorescence, corresponding to substrate cleavage, was monitored continuously at room temperature for 1 hour. Initial reaction rates were calculated based on the rate of increase in fluorescence during the reaction. Reaction rates were plotted as a function of compound concentration, and IC50 values were determined nonlinear regression analysis (SoftMaxPro 5.4, Molecular Devices™) of the sigmoidal dose-response curve.

The next assay concerns the target T2, E. coli SPase (Escherichia coli, UniProt P00803).
T2 construct: Full length His-tagged E. coli and S. aureus SPase proteins were expressed in E. coli BL21; His tag; made in house; host or cells: E. coli BL21 (DE3)
Nature of the assay: SPase enzyme inhibition assay, fluorogenic peptide substrate, E. coli. It is filed as biochemical. The method, then: as §2, §3

Assay [2] relates to Escherichia coli MC4100 harboring the IMP4213. Nature of the assay: MIC by broth micro-dilution (CLSI), E. coli. It is filed as cell-based. Conditions: E. coli MC4100 IMP4213 (increased outer-membrane permeability); cation adjusted Mueller Hinton Broth + 0.002% Tween-80; 35° C., 22 hours. On the procedure: as §1
Test compounds were prepared in DMSO at a concentration of 10 mg/ml. […]

Setting [3] is: 3 nM E. coli SPase, 20 μM substrate, 10 minutes pre-incubation, room temperature, read-out: IC 50 (nM) E. coli.
Where [4] appears, read: read-out: IC 50 (nM) S. aureus, 10 nM S. aureus SPase, 20 μM substrate, 10 minutes pre-incubation, room temperature.

T2 sequence (P00803 whole entry): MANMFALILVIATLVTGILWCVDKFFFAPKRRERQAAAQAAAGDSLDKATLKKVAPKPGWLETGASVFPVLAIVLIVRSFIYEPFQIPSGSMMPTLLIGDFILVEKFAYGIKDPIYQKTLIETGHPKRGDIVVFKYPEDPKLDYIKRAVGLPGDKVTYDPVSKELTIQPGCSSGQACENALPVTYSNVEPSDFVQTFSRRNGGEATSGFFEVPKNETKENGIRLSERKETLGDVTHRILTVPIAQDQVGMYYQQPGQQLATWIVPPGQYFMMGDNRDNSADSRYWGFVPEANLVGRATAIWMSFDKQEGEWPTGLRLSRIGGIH

With `CCCCc1ccc(-c2ccc(C(=O)NCCC(=O)N(C)[C@@H]3C(=O)N[C@@H](C)C(=O)N[C@H](C(=O)O)Cc4ccc(O)c(c4)-c4cc3ccc4O)cc2)cc1` [Compound 112], in assay [1], the MIC is above 64 µg/mL. In addition, the IC50 against S. aureus SPase is 7200 nM; at E. coli SPase (setting [3]), 850 nM.

On to `CCCCc1ccc(-c2ccc(C(=O)N[C@H](C)C(=O)N[C@@H](CCCCN)C(=O)N(C)[C@@H]3C(=O)N[C@@H](C)C(=O)N[C@H](C(=O)O)Cc4ccc(O)c(c4)-c4cc3ccc4O)cc2)cc1` [Compound 102], for which, in assay [1], the MIC stood at 10 µg/mL. The IC50 at S. aureus SPase worked out at 280 nM; at E. coli SPase (setting [3]) it was 11 nM.

Take `CCCCc1ccc(-c2ccc(C(=O)NCC(C)C(=O)N[C@@H](CCN)C(=O)N(C)[C@@H]3C(=O)N[C@@H](C)C(=O)N[C@H](C(=O)O)Cc4ccc(O)c(c4)-c4cc3ccc4O)cc2)cc1` (single isomer, unassigned) [Compound 115]: in assay [1], the “MIC (μg/mL) S. aureus” value was 64 µg/mL. Moreover, the IC50 came to 1900 nM on S. aureus SPase (10 nM S. aureus SPase, 20 μM substrate, 10 minutes pre-incubation, room temperature, read-out: IC 50 (nM) S. aureus) and 630 nM on E. coli SPase (setting [3]). Moreover, the “MIC (μg/mL) E. coli” value in assay [2] is above 64 µg/mL.

As for `CCCCc1ccc(-c2ccc(C(=O)N[C@@H](CCCCN)C(=O)N[C@H]3COCCCCC[C@@H](C(=O)N[C@@H](C)B4OC5C[C@@H]6C[C@@H](C6(C)C)[C@]5(C)O4)NC(=O)[C@H](C)NC3=O)cc2)cc1` (stereo partly shown) [Compound 204], in assay [1], the MIC stood at 1.4 µg/mL. Further, the IC50 at S. aureus SPase (setting [4]) was determined as 250 nM; at E. coli SPase (setting [3]) it was 25 nM.

For the compound `C[C@@H]1NC(=O)[C@@H](N(C)C(=O)[C@H](CCCCN)NC(=O)c2ccc(-c3ccc(Cl)cc3)cc2)c2ccc(O)c(c2)-c2cc(ccc2O)C[C@@H](C(=O)N[C@@H](C)C(=O)N2CCC[C@H]2C(N)=O)NC1=O` [Compound 132], the MIC in assay [1] is 6.1 µg/mL. In addition, the IC50 on S. aureus SPase was 5.9 nM; against E. coli SPase, 26 nM.

In the case of `CCCCc1ccc(-c2ccc(C(=O)NCC(=O)N[C@@H](CCCCN)C(=O)N(C)[C@@H]3C(=O)N[C@@H](C)C(=O)N[C@H](C(=O)O)Cc4ccc(O)c(c4)-c4cc3ccc4O)cc2)cc1` [Compound 108], the MIC in assay [1] turned out to be 8 µg/mL. For the same compound, the IC50 against S. aureus SPase is 110 nM; on E. coli SPase (setting [3]) it was 2.4 nM.

Consider `CCCCCCCC(=O)N[C@@H](CCCCN)C(=O)N(C)[C@@H]1C(=O)N[C@@H](C)C(=O)N[C@H](C(=O)N[C@@H](C)B2O[C@@H]3C[C@@H]4C[C@@H](C4(C)C)[C@]3(C)O2)Cc2ccc(O)c(c2)-c2cc1ccc2O` [Compound 125], for which, in assay [1], the MIC is 23 µg/mL. For the same compound, the figures for the IC50 against S. aureus SPase and on E. coli SPase (setting [3]) were 64 nM and 26 nM, respectively.

On to `CCCCc1ccc(-c2ccc(C(=O)N[C@@H](CCCCN)C(=O)N[C@H]3COCCCCC[C@@H](C(=O)N[C@@H](C)B(O)O)NC(=O)[C@H](C)NC3=O)cc2)cc1` [Compound 205], for which the MIC in assay [1] came out at 2.8 µg/mL. Also, the values for the IC50 at S. aureus SPase (setting [4]) and at E. coli SPase (setting [3]) were 280 nM and 30 nM, respectively.

Consider `CCCCc1ccc(-c2ccc(C(=O)NC(CCCCN)C(=O)N[C@H]3COCCCCOC[C@@H](C(=O)N[C@@H](C)B4O[C@@H]5C[C@@H]6C[C@@H](C6(C)C)[C@]5(C)O4)NC(=O)[C@H](C)NC3=O)cc2)cc1` (mixture of isomers) [Compound 206], for which the MIC in assay [1] worked out at 4 µg/mL. The figures for the IC50 at S. aureus SPase and at E. coli SPase (setting [3]) were 600 nM and 81 nM, respectively.

As for `CCCCCCCC(=O)NCCC(=O)N[C@@H](CCCCN)C(=O)N(C)[C@@H]1C(=O)N[C@@H](C)C(=O)N[C@H](C(=O)N[C@@H](C)B2O[C@@H]3C[C@@H]4C[C@@H](C4(C)C)[C@]3(C)O2)Cc2ccc(O)c(c2)-c2cc1ccc2O` [Compound 123], in assay [1], the MIC worked out at 64 µg/mL. The IC50 against S. aureus SPase is 18 nM; on E. coli SPase (setting [3]), 20 nM.

Take `CCCCc1ccc(-c2ccc(C(=O)NC[C@@H](N)C(=O)N[C@@H](CCCCN)C(=O)N(C)[C@@H]3C(=O)N[C@@H](C)C(=O)N[C@H](C(=O)O)Cc4ccc(O)c(c4)-c4cc3ccc4O)cc2)cc1` [Compound 109]: the MIC in assay [1] was above 64 µg/mL. In addition, the IC50 against S. aureus SPase was 15 nM; at E. coli SPase (setting [3]), 11 nM.

`CCCCc1ccc(-c2ccc(C(=O)N[C@@H](CCCCN)C(=O)N(C)[C@@H]3C(=O)N[C@@H](C)C(=O)N[C@H](C(=O)N[C@@H](C)B4O[C@@H]5C[C@@H]6C[C@@H](C6(C)C)[C@]5(C)O4)Cc4ccc(O)c(c4)-c4cc3ccc4O)cc2)cc1` [Compound 121]: in assay [1], the MIC was 0.71 µg/mL. Also, the results for the IC50 at S. aureus SPase and on E. coli SPase (setting [3]) were 110 nM and 29 nM, respectively.
